In patent publication US8889668B2, “Oxadiazole diaryl compounds” (Merck Serono SA, priority 2007, dated 2014):

Legend:
S1P1 [1] = target: T1, S1P1 (Homo sapiens (Human), UniProt P21453); assay: 35S-GTPγS binding, membranes from CHO cells expressing S1P1; type: biochemical; settings: 60 min 30° C., read-out: S1P1 GTPgS EC50
S1P3 = S1P3 (Homo sapiens (Human), UniProt Q99500); assay: 35S-GTPγS binding, membranes from CHO cells expressing S1P3; type: biochemical; settings: 60 min 30° C., read-out: S1P3 GTPgs EC50
Sequence of S1P3 (Q99500 whole entry, species assumed): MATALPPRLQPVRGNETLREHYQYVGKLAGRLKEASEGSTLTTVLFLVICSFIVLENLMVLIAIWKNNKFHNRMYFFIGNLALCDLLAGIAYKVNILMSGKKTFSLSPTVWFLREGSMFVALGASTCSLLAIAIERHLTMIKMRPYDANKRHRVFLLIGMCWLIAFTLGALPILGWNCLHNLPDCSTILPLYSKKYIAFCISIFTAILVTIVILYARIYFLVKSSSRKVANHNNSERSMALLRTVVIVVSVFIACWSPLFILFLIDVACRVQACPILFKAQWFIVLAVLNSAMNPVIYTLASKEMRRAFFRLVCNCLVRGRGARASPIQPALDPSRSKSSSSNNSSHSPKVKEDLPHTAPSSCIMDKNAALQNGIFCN
Method: (§1) Receptor binding assay: Membranes were prepared from CHO cells expressing S1P1 or S1P3 for use in ligand and […] binding studies. Cells were suspended in 50 mM TRIS, pH 7.4, 2 mM EDTA, 250 mM Sucrose (buffer A) and 1× Complete protease inhibitor cocktail (Roche), and disrupted at 4° C. by nitrogen decompression using a cell disruption bomb (Parr Instrument). Following centrifugation at 1000 RPM for 10 min at 4° C., the supernatant was suspended in buffer A and centrifuged again at 19000 RPM for 60 min at 4° C. The pellet was then suspended in 10 mM HEPES, pH 7.4, 1 mM EDTA, 250 mM Sucrose (Buffer B), and 1× Complete EDTA-free protease inhibitor cocktail and homogenized using a potter. Membranes were flash frozen in liquid nitrogen and stored at −80° C. [33P]sphingosine 1-phosphate (3000 Ci/mmol; American Radiolabeled Chemicals, Inc.) was added to test compounds in DMSO. Membranes and WGA SPA beads (GE Healthcare) were added to give a final volume of 100 μl in 96-well plates with assay concentrations of 25 pM or 10 pM [33P]sphingosine 1-phosphate (respectively for S1P1 or S1P3), 50 mM HEPES, pH 7.5, 5 mM MgCl2, 100 mM NaCl, 0.4% fatty acid-free BSA, 1-5 μg/well of proteins and 100 μg/well of WGA SPA beads. Binding was performed for 60 min at room temperature on a shaker and bound radioactivity was measured on a PerkinElmer 1450 MicroBeta counter. Specific binding was calculated by subtracting remaining radioactivity in the presence of 1000-fold excess of unlabeled S1P. Binding data were analyzed using the GraphPad Prism program.
Measurements of ^35S-GTPγS Binding: Membranes (1 to 10 μg protein) prepared as described above, were incubated in 96-well Scintiplates (PerkinElmer) with test compounds diluted in DMSO, in 180 μl of 20 mM HEPES, pH 7.4, 10 mM MgCl2, 2 μg/well Saponin, 0.2% fatty acid free BSA (Assay buffer), 140 mM NaCl and 1.7 μM GDP. The assay was initiated with the addition of 20 μl of 1.5 nM [35S]-GTPγS (1100 Ci/mmol; GE Healthcare) in assay buffer. After 60 min incubation at 30° C. on a shaker, plates were centrifuged for 10 min at 2000 RPM. Supernatant was discarded and membrane bound radioactivity was measured on a PerkinElmer 1450 MicroBeta counter. Triplicate samples were averaged and expressed as % response relative to S1P activation in absence of compound (n=2).

S1P1 [2] = target: T1, S1P1; assay: Receptor binding assay, [33P]sphingosine 1-phosphate, membranes from CHO cells expressing S1P1; settings: [33P]S1P 25 pM, SPA
Method: as §1

T1 sequence (P21453 whole entry, species assumed): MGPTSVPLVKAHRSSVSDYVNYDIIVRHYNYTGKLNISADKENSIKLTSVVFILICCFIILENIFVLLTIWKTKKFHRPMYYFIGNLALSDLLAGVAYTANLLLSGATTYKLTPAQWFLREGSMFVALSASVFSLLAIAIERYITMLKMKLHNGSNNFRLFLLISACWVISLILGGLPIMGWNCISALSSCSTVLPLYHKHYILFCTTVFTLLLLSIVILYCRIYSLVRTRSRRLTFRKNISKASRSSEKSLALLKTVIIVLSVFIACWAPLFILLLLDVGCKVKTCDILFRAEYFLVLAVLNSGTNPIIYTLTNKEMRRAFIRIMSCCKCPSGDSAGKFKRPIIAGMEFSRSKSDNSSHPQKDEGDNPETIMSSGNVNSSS

Compound	EC50 (S1P1 [1])	EC50 (S1P3)	Ki (S1P1 [2])
CC1CCCCN1c1ccc(-c2nc(-c3ccccc3OC(F)(F)F)no2)cc1[N+](=O)[O-] (centres unmarked) [Compound I8, 2-methyl-1-(2-nitro-4-{3-[2-(trifluoromethoxy)phenyl]-1,2,4-oxadiazol-5-yl}phenyl)piperidine]	18 nM	> 30000 nM	–
COc1ccc(F)cc1-c1noc(-c2ccc(-c3ccccc3C)c(C)c2)n1 [Compound I33, 5-(2,2′-dimethylbiphenyl-4-yl)-3-(5-fluoro-2-methoxyphenyl)-1,2,4-oxadiazole]	6 nM	–	43 nM
COc1ccccc1-c1noc(-c2ccc(N3CCCCC3)cc2)n1 [Compound I4, 1-{4-[3-(2-methoxyphenyl)-1,2,4-oxadiazol-5-yl]phenyl}piperidine]	3600 nM	–	1070 nM
CC1CCCCN1c1ccc(-c2nc(-c3ccccc3OC(F)(F)F)no2)cc1C(F)(F)F (centres unmarked) [Compound I34, 2-methyl-1-[4-{3-[2-(trifluoromethoxy)phenyl]-1,2,4-oxadiazol-5-yl}-2-(trifluoromethyl)phenyl]piperidine]	6 nM	> 20000 nM	5 nM
COc1ccccc1-c1noc(-c2ccc(CC(C)C)cc2)n1 [Compound I28, 5-(4-isobutylphenyl)-3-(2-methoxyphenyl)-1,2,4-oxadiazole]	162 nM	> 30000 nM	91 nM
COc1ccccc1-c1noc(-c2ccc(-c3ccccc3C)c(C)c2)n1 [Compound I20, 5-(2,2′-dimethylbiphenyl-4-yl)-3-(2-methoxyphenyl)-1,2,4-oxadiazole]	44 nM	3210 nM	16 nM
COc1ccccc1-c1noc(-c2ccc(N3CCCC(F)(F)C3)c([N+](=O)[O-])c2)n1 [Compound I12, 3,3-difluoro-1-{4-[3-(2-methoxyphenyl)-1,2,4-oxadiazol-5-yl]-2-nitrophenyl}piperidine]	36 nM	> 30000 nM	–
CCOc1ccccc1-c1noc(-c2ccc(-c3ccccc3C)c(C)c2)n1 [Compound I22, 5-(2,2′-dimethylbiphenyl-4-yl)-3-(2-ethoxyphenyl)-1,2,4-oxadiazole]	51 nM	> 30000 nM	–
COc1ccccc1-c1noc(-c2ccc(N3CCCCC3)c([N+](=O)[O-])c2)n1 [Compound I1, 1-{4-[3-(2-methoxyphenyl)-1,2,4-oxadiazol-5-yl]-2-nitrophenyl}piperidine]	27 nM	> 20000 nM	11 nM
COc1ccccc1-c1ccc(-c2nc(-c3ccccc3OC(F)(F)F)no2)cc1C [Compound I45, 5-(2′-methoxy-2-methylbiphenyl-4-yl)-3-[2-(trifluoromethoxy)phenyl]-1,2,4-oxadiazole]	10 nM	> 20000 nM	–
COc1ccccc1-c1noc(-c2ccc(N3CCOCC3)c(C(F)(F)F)c2)n1 [Compound I18, 4-[4-[3-(2-methoxyphenyl)-1,2,4-oxadiazol-5-yl]-2-(trifluoromethyl)phenyl]morpholine]	6 nM	> 30000 nM	7 nM
FC(F)(F)Oc1ccccc1-c1noc(-c2ccc(N3CCCCC3)cc2)n1 [Compound I3, 1-(4-{3-[2-(trifluoromethoxy)phenyl]-1,2,4-oxadiazol-5-yl}phenyl)piperidine]	1780 nM	–	652 nM
COc1ccccc1-c1noc(-c2ccc(C3CCCCC3)cc2)n1 [Compound I27, 5-(4-cyclohexylphenyl)-3-(2-methoxyphenyl)-1,2,4-oxadiazole]	66 nM	> 30000 nM	20 nM
COc1ccccc1-c1noc(-c2ccc(N3CCOCC3)c([N+](=O)[O-])c2)n1 [Compound I2, 4-{4-[3-(2-methoxyphenyl)-1,2,4-oxadiazol-5-yl]-2-nitrophenyl}morpholine]	51 nM	> 30000 nM	18 nM
COc1ccccc1-c1noc(-c2ccc(-c3ccccc3C)c([N+](=O)[O-])c2)n1 [Compound I26, 3-(2-methoxyphenyl)-5-(2′-methyl-2-nitrobiphenyl-4-yl)-1,2,4-oxadiazole]	9 nM	5050 nM	2 nM
COc1ccccc1-c1noc(-c2ccc(N3CCCCC3C)c([N+](=O)[O-])c2)n1 (centres unmarked) [Compound I9, 1-{4-[3-(2-methoxyphenyl)-1,2,4-oxadiazol-5-yl]-2-nitrophenyl}-2-methylpiperidine]	7 nM	5410 nM	–
CCOc1ccccc1-c1noc(-c2ccc(N3CCCCC3C)c([N+](=O)[O-])c2)n1 (centres unmarked) [Compound I10, 1-{4-[3-(2-ethoxyphenyl)-1,2,4-oxadiazol-5-yl]-2-nitrophenyl}-2-methylpiperidine]	24 nM	> 30000 nM	–
Cc1ccccc1-c1ccc(-c2nc(-c3ccccc3OC(F)(F)F)no2)cc1[N+](=O)[O-] [Compound I36, 5-(2′-methyl-2-nitrobiphenyl-4-yl)-3-[2-(trifluoromethoxy)phenyl]-1,2,4-oxadiazole]	10 nM	2100 nM	–
FC(F)(F)Oc1ccccc1-c1noc(-c2ccc(N3CCOCC3)c(C(F)(F)F)c2)n1 [Compound I19, 4-[4-{3-[2-(trifluoromethoxy)phenyl]-1,2,4-oxadiazol-5-yl}-2-(trifluoromethyl)phenyl]morpholine]	18 nM	> 30000 nM	–
FC(F)(F)Oc1ccccc1-c1noc(-c2ccc(C3CCCCC3)cc2)n1 [Compound I29, 5-(4-cyclohexylphenyl)-3-[2-(trifluoromethoxy)phenyl]-1,2,4-oxadiazole]	59 nM	–	25 nM

Further lines, results first:

EC50 (S1P1 [1])	EC50 (S1P3)	Ki (S1P1 [2])	Compound
2 nM	92 nM	4 nM	COc1ccc(F)cc1-c1noc(-c2ccc(-c3ccccc3C)c(CN(C)C)c2)n1 [Compound I78, 1-{4-[3-(5-fluoro-2-methoxyphenyl)-1,2,4-oxadiazol-5-yl]-2′-methylbiphenyl-2-yl}-N,N-dimethylmethanamine]
4 nM	–	54 nM	FC(F)(F)Oc1ccccc1-c1noc(-c2ccc(N3CCCCC3)c(C(F)(F)F)c2)n1 [Compound I61, 1-[4-{3-[2-(trifluoromethoxy)phenyl]-1,2,4-oxadiazol-5-yl}-2-(trifluoromethyl)phenyl]piperidine]
24 nM	270 nM	–	COc1ccc(F)cc1-c1noc(-c2ccc(N3CCCCC3C)c(N)c2)n1 (centres unmarked) [Compound I69, 5-[3-(5-fluoro-2-methoxyphenyl)-1,2,4-oxadiazol-5-yl]-2-(2-methylpiperidin-1-yl)aniline]
8 nM	> 20000 nM	46 nM	COc1ccc(F)cc1-c1noc(-c2ccc(N3CCCCC3C)c(NS(C)(=O)=O)c2)n1 (centres unmarked) [Compound I72, N-[5-[3-(5-fluoro-2-methoxyphenyl)-1,2,4-oxadiazol-5-yl]-2-(2-methylpiperidin-1-yl)phenyl]methanesulfonamide]
5 nM	–	6 nM	COc1ccc(F)cc1-c1noc(-c2cnc(N3CCCCC3C)c(C)c2)n1 (centres unmarked) [Compound I74, 5-[3-(5-fluoro-2-methoxyphenyl)-1,2,4-oxadiazol-5-yl]-3-methyl-2-(2-methylpiperidin-1-yl)pyridine]
4 nM	–	8 nM	COc1ccccc1-c1noc(-c2ccc(-c3ccccc3C)c(C(F)(F)F)c2)n1 [Compound I62, 3-(2-methoxyphenyl)-5-[2′-methyl-2-(trifluoromethyl)biphenyl-4-yl]-1,2,4-oxadiazole]
2 nM	–	4 nM	Cc1cscc1-c1ccc(-c2nc(-c3ccccc3OC(F)(F)F)no2)cc1C(F)(F)F [Compound I70, 5-[4-(4-methyl-3-thienyl)-3-(trifluoromethyl)phenyl]-3-[2-(trifluoromethoxy)phenyl]-1,2,4-oxadiazole]
14 nM	> 20000 nM	–	COc1cc(-c2nc(-c3ccccc3OC(F)(F)F)no2)ccc1-c1ccccc1C [Compound I53, 5-(2-methoxy-2′-methylbiphenyl-4-yl)-3-[2-(trifluoromethoxy)phenyl]-1,2,4-oxadiazole]
13 nM	> 30000 nM	–	COc1cc(-c2nc(-c3ccccc3OC(F)(F)F)no2)ccc1-c1cscc1C [Compound I54, 5-[3-methoxy-4-(4-methyl-3-thienyl)phenyl]-3-[2-(trifluoromethoxy)phenyl]-1,2,4-oxadiazole]
